{
  "source": "patent US8460868B2",
  "about": "“Genetic markers for schizophrenia and bipolar disorder” (priority 2007, dated 2013)",
  "key": {"[1]": {"system": "patients with schizophrenia", "assay": "CATIE trial drug response (>20% decrease in PANSS Total Score) by HPCAL1/SV2C genotype", "format": "in vivo, human", "conditions": "for Response frequency: CATIE Phase 1; for OR vs. Low / OR vs. baseline: response; for OR vs. Low: vs low scoring genotype(s); for OR vs. baseline: vs sample not segmented by genotype", "description": "(§1) The Clinical Antipsychotic Trials of Intervention Effectiveness (CATIE), a large federally funded clinical trial designed to assess the efficacy of antipsychotics in a real world setting, is a valuable resource for determining the role of genes in drug response (Stroup et al., Schizophr. Bull. 29:15-31 (2003); Lieberman et al., N. Engl. J. […] As part of the CATIE trial SNP genotyping was performed for roughly half of the trial participants (Sullivan et al., Mol. Psychiatry 13:570-584 (2008)). […] The design of the CATIE study has been described in detail by others (Stroup et al., Schizophr. Bull. 29:15-31 (2003); Lieberman et al., N. Engl. J. […] A total of 738 subjects consented to provide DNA for genetic study. […] Genotype and phenotype data for the CATIE trial were made available to qualified researchers through The NIMH Center for Collaborative Genetic Studies on Mental Disorders. For reduction to practice, we evaluated data for 417 patients with schizophrenia self reported as having exclusively European ancestry. […] Golden Helix, Bozeman, Mont.). To generate a P value, HelixTree calculates analysis of deviance (a likelihood ratio statistic) that compares the observed contingency table vs. an expected contingency table created with all the possible variations of the genetic model. […] The standard FDA registration trial definition of response of >20% decrease in Positive and Negative Syndrome Scale (PANSS Total Score) was used to assign subjects to a response category. […] Bull. 29:73-80 (2003)). […] The tables report odds ratios relative to the baseline values (sample not segmented by genotype) and relative to values for the low scoring, mutually exclusive genotype(s)."}, "[2]": {"system": "patients with schizophrenia", "assay": "CATIE trial side effects (discontinued for safety concerns, COMPEFF score 5) by HPCAL1/SV2C genotype", "format": "in vivo, human", "conditions": "for OR vs. Low / OR vs. baseline: side effects; for OR vs. Low: vs low scoring genotype(s); for OR vs. baseline: vs sample not segmented by genotype", "description": "as §1"}, "[3]": {"conditions": "SV2C rs6453205 genotype C/C (C)"}, "[4]": {"conditions": "HPCAL1 rs11679891 genotype A/C, C/C (C)"}, "[5]": {"conditions": "HPCAL1 rs13033617 genotype C/C (C)"}, "[6]": {"conditions": "HPCAL1 rs11679891 genotype C/C (C)"}, "[7]": {"conditions": "SV2C rs4610441 genotype C/C (C)"}, "[8]": {"conditions": "SV2C rs10064352 genotype T/T (T)"}, "[9]": {"conditions": "SV2C rs10474464 genotype C/C (C)"}, "[10]": {"conditions": "SV2C rs12152728 genotype C/C (C)"}, "[11]": {"conditions": "SV2C rs12522597 genotype G/G, A/G (G)"}, "[12]": {"conditions": "HPCAL1 rs7571627 genotype T/T (T)"}},
  "data": [
    {"smiles": "OCCN1CCN(CCCN2c3ccccc3Sc3ccc(Cl)cc32)CC1", "note": "[perphenazine]", "values": [
      {"measurement": "Response frequency", "setting": "[1]; [3]", "result": 0.7},
      {"measurement": "OR vs. Low", "setting": "[1]; [3]", "result": 3.36},
      {"measurement": "OR vs. baseline", "setting": "[1]; [3]", "result": 2.43},
      {"measurement": "Frequency Study ending side effects", "setting": "[2]; [4]", "result": 0.19},
      {"measurement": "OR vs. Low", "setting": "[2]; [4]", "result": ">10"},
      {"measurement": "OR vs. baseline", "setting": "[2]; [4]", "result": 1.44},
      {"measurement": "Frequency Study ending side effects", "setting": "[2]; [5]", "result": 0.27},
      {"measurement": "OR vs. Low", "setting": "[2]; [5]", "result": 3.74},
      {"measurement": "OR vs. baseline", "setting": "[2]; [5]", "result": 2.27}
    ]},
    {"smiles": "Cc1nc2n(c(=O)c1CCN1CCC(c3noc4cc(F)ccc34)CC1)CCCC2", "note": "[risperidone]", "values": [
      {"measurement": "Response frequency", "setting": "[1]; SV2C rs4704297 genotype C/C, C/G (C)", "result": 0.45}
    ]},
    {"smiles": "OCCOCCN1CCN(C2=Nc3ccccc3Sc3ccccc32)CC1", "note": "[quetiapine]", "values": [
      {"measurement": "Response frequency", "setting": "[1]; [6]", "result": 0.6},
      {"measurement": "OR vs. baseline", "setting": "[1]; [6]", "result": 3.05},
      {"measurement": "Response frequency", "setting": "[1]; [7]", "result": 0.6},
      {"measurement": "OR vs. baseline", "setting": "[1]; [7]", "result": 3.05},
      {"measurement": "Response frequency", "setting": "[1]; [8]", "result": 0.6},
      {"measurement": "OR vs. Low", "setting": "[1]; [8]", "result": 3.67},
      {"measurement": "OR vs. baseline", "setting": "[1]; [8]", "result": 3.05},
      {"measurement": "Response frequency", "setting": "[1]; [9]", "result": 0.6},
      {"measurement": "OR vs. baseline", "setting": "[1]; [9]", "result": 3.05},
      {"measurement": "Response frequency", "setting": "[1]; [10]", "result": 0.5},
      {"measurement": "OR vs. Low", "setting": "[1]; [10]", "result": 2.70},
      {"measurement": "OR vs. baseline", "setting": "[1]; [10]", "result": 2.03}
    ]},
    {"smiles": "O=C1Cc2cc(CCN3CCN(c4nsc5ccccc45)CC3)c(Cl)cc2N1", "note": "[ziprasidone]", "values": [
      {"measurement": "Response frequency", "setting": "[1]; [11]", "result": 0.55},
      {"measurement": "OR vs. Low", "setting": "[1]; [11]", "result": 9.89},
      {"measurement": "OR vs. baseline", "setting": "[1]; [11]", "result": 1.49},
      {"measurement": "Frequency Study ending side effects", "setting": "[2]; [12]", "result": 0.33},
      {"measurement": "OR vs. Low", "setting": "[2]; [12]", "result": 4.98},
      {"measurement": "OR vs. baseline", "setting": "[2]; [12]", "result": 1.56},
      {"measurement": "Frequency Study ending side effects", "setting": "[2]; SV2C rs246812 genotype A/A (A)", "result": 0.5},
      {"measurement": "OR vs. Low", "setting": "[2]; SV2C rs246812 genotype A/A (A)", "result": 6.14},
      {"measurement": "OR vs. baseline", "setting": "[2]; SV2C rs246812 genotype A/A (A)", "result": 3.17}
    ]}
  ]
}
